According to ChEMBL document CHEMBL1201862, “PubChem BioAssay data set” (2004):
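Step 1: Grow cells in 96-well plates. Step 2: Expose to compound for 48 hours at 5 concentrations. Step 3: Interpolate endpoints linearly; if unreached, use highest concentration. The concentration for 50% growth inhibition is given as GI50.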 The source made the active and inactive calls. Rule as the data show it: active = GI50 up to about 1.1 µM and inactive = higher.

Experiments:
Test in all cases: growth of human tumour cells (NCI), 48 h
OVCAR-5 = system: OVCAR-5
TK-10 = system: TK-10
K562 = system: K562
HT-29 = system: HT-29
SK-MEL-2 = system: SK-MEL-2
M14 = system: M14
MOLT-4 = system: MOLT-4
Malme-3M = system: Malme-3M
IGROV-1 = system: IGROV-1
SF-295 = system: SF-295
UACC-257 = system: UACC-257
HCT-15 = system: HCT-15
HCT-116 = system: HCT-116
SW-620 = system: SW-620
SNB-19 = system: SNB-19
U-251 = system: U-251
CCRF-CEM = system: CCRF-CEM
SK-MEL-28 = system: SK-MEL-28
LOX IMVI = system: LOX IMVI
XF498 = system: XF498

Compound | GI50 (OVCAR-5) | GI50 (TK-10) | GI50 (K562) | GI50 (HT-29) | GI50 (SK-MEL-2) | GI50 (M14) | GI50 (MOLT-4) | GI50 (Malme-3M) | GI50 (IGROV-1) | GI50 (SF-295) | GI50 (UACC-257) | GI50 (HCT-15) [µM] | GI50 (HCT-116) | GI50 (SW-620) | GI50 (SNB-19) | GI50 (U-251) | GI50 (CCRF-CEM) | GI50 (SK-MEL-28) | GI50 (LOX IMVI) | GI50 (XF498)
O=[N+]([O-])c1ccc2c3ccccc3[s+]([O-])c2c1 (stereo unspecified) | > 100 µM (inactive) | > 100 µM (inactive) | > 100 µM (inactive) | > 100 µM (inactive) | > 100 µM (inactive) | > 100 µM (inactive) | > 100 µM (inactive) | 30.5 µM (inactive) | > 100 µM (inactive) | > 100 µM (inactive) | > 100 µM (inactive) | > 100 | > 100 µM (inactive) | 72.4 µM (inactive) | > 100 µM (inactive) | > 100 µM (inactive) | > 100 µM (inactive) | > 100 µM (inactive) | > 100 µM (inactive) | –
COc1cc(C)c(C2NC(=O)c3ccccc3N2)cc1C (stereo unspecified) | 0.75 µM (active) | 2.28 µM (inactive) | 0.125 µM (active) | 0.321 µM (active) | 0.297 µM (active) | 0.316 µM (active) | 1.04 µM (active) | 0.183 µM (active) | 0.472 µM (active) | 0.243 µM (active) | 0.47 µM (active) | 0.217 | 0.34 µM (active) | 0.303 µM (active) | 0.468 µM (active) | 0.396 µM (active) | 0.352 µM (active) | 0.59 µM (active) | 0.451 µM (active) | –
NS(=O)(=O)c1ccc(NC(=O)N/N=C/c2ccccc2[N+](=O)[O-])cc1 | > 100 µM (inactive) | > 100 µM (inactive) | 28.8 µM (inactive) | 30.1 µM (inactive) | 58.7 µM (inactive) | 25.5 µM (inactive) | 39.8 µM (inactive) | 78.2 µM (inactive) | 31.2 µM (inactive) | 61.7 µM (inactive) | 79.4 µM (inactive) | 35 | 30.1 µM (inactive) | 36.1 µM (inactive) | 44 µM (inactive) | 43.1 µM (inactive) | 25.9 µM (inactive) | 61.2 µM (inactive) | 44.7 µM (inactive) | –
Cn1c2c(cc(-c3ccccc3)c1=O)COc1ccccc1-2 | 14.5 µM (inactive) | – | 23.9 µM (inactive) | 19.9 µM (inactive) | 14 µM (inactive) | 31.6 µM (inactive) | 23.1 µM (inactive) | 20.3 µM (inactive) | 35.5 µM (inactive) | 25.8 µM (inactive) | 36.9 µM (inactive) | 32.1 | 16.9 µM (inactive) | 45.9 µM (inactive) | 40.9 µM (inactive) | 41.6 µM (inactive) | 30.5 µM (inactive) | 24.1 µM (inactive) | 15.2 µM (inactive) | 8.04 µM (inactive)
S=C(Nc1ccccc1)N(/N=C/C=C/c1ccccc1)c1nnc(-c2ccccc2)c(-c2ccccc2)n1 | > 100 µM (inactive) | 95.3 µM (inactive) | 36.6 µM (inactive) | 99.1 µM (inactive) | 56.8 µM (inactive) | 63.4 µM (inactive) | 32.3 µM (inactive) | 57.7 µM (inactive) | > 100 µM (inactive) | 42.9 µM (inactive) | 38.9 µM (inactive) | 82.2 | – | > 100 µM (inactive) | > 100 µM (inactive) | > 100 µM (inactive) | 51.2 µM (inactive) | 54.6 µM (inactive) | 52.1 µM (inactive) | 61 µM (inactive)
COc1cccc(C23CCN(C)C(CC(O)C2)C3)c1OC (stereo unspecified) | > 100 µM (inactive) | > 100 µM (inactive) | > 100 µM (inactive) | > 100 µM (inactive) | > 100 µM (inactive) | > 100 µM (inactive) | > 100 µM (inactive) | > 100 µM (inactive) | > 100 µM (inactive) | > 100 µM (inactive) | > 100 µM (inactive) | > 100 | > 100 µM (inactive) | > 100 µM (inactive) | > 100 µM (inactive) | > 100 µM (inactive) | > 100 µM (inactive) | > 100 µM (inactive) | > 100 µM (inactive) | –
Cn1nc(-c2ccccc2)c(C(=O)/C=C/c2ccccc2)c(N2CCOCC2)c1=O | – | 32.8 µM (inactive) | 17.9 µM (inactive) | 17.7 µM (inactive) | – | 20.9 µM (inactive) | 13.2 µM (inactive) | – | 23.4 µM (inactive) | – | – | 16.7 | 14.4 µM (inactive) | 28.9 µM (inactive) | > 10 µM (inactive) | 15.4 µM (inactive) | 18.8 µM (inactive) | > 10 µM (inactive) | 21.6 µM (inactive) | 12.7 µM (inactive)
OCC(O)C(O)C(O)C1SC(c2ccccc2)=NN1c1ccccc1 (stereo unspecified) | > 84.9 µM (inactive) | 61.9 µM (inactive) | > 70.1 µM (inactive) | > 92 µM (inactive) | 41.7 µM (inactive) | 83 µM (inactive) | > 81.3 µM (inactive) | > 82 µM (inactive) | > 96.2 µM (inactive) | 35.1 µM (inactive) | > 89.1 µM (inactive) | > 100 | 69.5 µM (inactive) | > 100 µM (inactive) | 49.8 µM (inactive) | 51.4 µM (inactive) | > 81.5 µM (inactive) | > 81.5 µM (inactive) | 50.7 µM (inactive) | 30.1 µM (inactive)
Cc1cccc(/C=N/NC(=S)NC(C)(C)C)n1 | 95.1 µM (inactive) | 75.2 µM (inactive) | 5.15 µM (inactive) | 3.12 µM (inactive) | > 100 µM (inactive) | 88.7 µM (inactive) | 4.72 µM (inactive) | > 100 µM (inactive) | 66.7 µM (inactive) | > 100 µM (inactive) | > 100 µM (inactive) | 24.8 | 19.7 µM (inactive) | 16 µM (inactive) | > 100 µM (inactive) | 93.3 µM (inactive) | 1.64 µM (inactive) | > 100 µM (inactive) | 66.5 µM (inactive) | –
C1=N\c2ccc(cc2)-c2ccc(cc2)/N=C\c2ccccc2OCc2cccc(n2)COc2ccccc2/1 | > 63.5 µM (inactive) | 26.6 µM (inactive) | > 100 µM (inactive) | > 100 µM (inactive) | 27.6 µM (inactive) | 36.4 µM (inactive) | > 100 µM (inactive) | > 82.8 µM (inactive) | 40.6 µM (inactive) | 18.5 µM (inactive) | > 100 µM (inactive) | > 100 | 24.4 µM (inactive) | > 100 µM (inactive) | 13.9 µM (inactive) | 7.59 µM (inactive) | > 100 µM (inactive) | 84.9 µM (inactive) | > 44.2 µM (inactive) | –
O=[N+]([O-])c1cc(Cl)ccc1OCc1ccccc1 | – | > 100 µM (inactive) | 42.7 µM (inactive) | 29.6 µM (inactive) | > 100 µM (inactive) | 83.6 µM (inactive) | 27.9 µM (inactive) | 99.3 µM (inactive) | > 100 µM (inactive) | 56.6 µM (inactive) | 45.3 µM (inactive) | 67 | 55.6 µM (inactive) | > 100 µM (inactive) | – | 42.2 µM (inactive) | 40.9 µM (inactive) | > 100 µM (inactive) | 40.8 µM (inactive) | 20.4 µM (inactive)
COc1cccc2c1Cc1cc(-c3ccccc3)[n+](C)n1-2 | 23.9 µM (inactive) | 28.8 µM (inactive) | 3.26 µM (inactive) | 3.54 µM (inactive) | 17.5 µM (inactive) | 8.43 µM (inactive) | 2.92 µM (inactive) | 10.3 µM (inactive) | 12.5 µM (inactive) | 20.3 µM (inactive) | 3.58 µM (inactive) | 31.3 | 3.5 µM (inactive) | 6.1 µM (inactive) | 28.9 µM (inactive) | 5.36 µM (inactive) | 3.37 µM (inactive) | 46.1 µM (inactive) | 10 µM (inactive) | –
O=C(O)c1ccccc1CC(Cc1ccccc1)C(=O)O (stereo unspecified) | > 100 µM (inactive) | > 100 µM (inactive) | > 100 µM (inactive) | > 100 µM (inactive) | > 100 µM (inactive) | > 100 µM (inactive) | > 100 µM (inactive) | > 100 µM (inactive) | > 100 µM (inactive) | > 100 µM (inactive) | > 100 µM (inactive) | > 100 | > 100 µM (inactive) | > 100 µM (inactive) | > 100 µM (inactive) | > 100 µM (inactive) | > 100 µM (inactive) | > 100 µM (inactive) | > 100 µM (inactive) | –
Cc1ccc(O)cc1.Cc1cccc(O)c1.Cc1ccccc1O [CRESOL] | > 100 µM (inactive) | > 100 µM (inactive) | > 100 µM (inactive) | > 100 µM (inactive) | > 100 µM (inactive) | > 100 µM (inactive) | 88.7 µM (inactive) | 8.61 µM (inactive) | 88.9 µM (inactive) | > 100 µM (inactive) | > 100 µM (inactive) | > 100 | > 100 µM (inactive) | > 100 µM (inactive) | > 100 µM (inactive) | > 100 µM (inactive) | 18.7 µM (inactive) | > 100 µM (inactive) | > 100 µM (inactive) | –
O=C(O)CS [THIOGLYCOLIC ACID] | > 100 µM (inactive) | > 100 µM (inactive) | > 100 µM (inactive) | > 100 µM (inactive) | > 100 µM (inactive) | – | > 100 µM (inactive) | > 100 µM (inactive) | > 100 µM (inactive) | > 100 µM (inactive) | > 100 µM (inactive) | > 100 | > 100 µM (inactive) | > 100 µM (inactive) | > 100 µM (inactive) | > 100 µM (inactive) | > 100 µM (inactive) | > 100 µM (inactive) | > 100 µM (inactive) | > 100 µM (inactive)
